Patent publication US4495199A, “Dioxolanic amine with pharmacological activity, its method of preparation, the pharmaceutical compositions containing same and their use in human medicine” (priority 1982, dated 1985)
Where a name gives a salt, the structure may show the parent alone.

Key:
rat = experiment: Acute toxicity, oral, rat; type: in vivo
Protocol: (§1) The respective lethal dose 50 was calculated according to the method of Litchfield and Wilcoxon (Jl. Pharmacol. Exptl. 96 99, 1949).

mouse = experiment: Acute toxicity, oral, mouse; type: in vivo
Protocol: as §1

[1] = system: T wave in the conscious dog; experiment: Anti-angina activity, amplitude increase protection of the T wave by vasopression in the conscious dog; type: in vivo
Text: The antiangina activity was also compared with that of the nitroglycerine by means of the amplitude increase protection test of the T wave for vasopression in the conscious dog. (A. Lindner, M. London, G. Werner, Scheiz. Med. Wsohr. 83, 360, 1953; J. Papp. L. Szekeres. Arch. Int. Pharmacodyn, 160, 1, 1966).

[2] = system: fibrillation by chloroform in the male NMRI mouse; experiment: Anti-arrhythmic activity, fibrillation by chloroform in the mouse, p.o.; type: in vivo
Text: Tables 5 and 6 show the anti-arrythmic activity of the ITA 362 in the male NMRI mouse by oral and intraperitoneal route using the fibrillation test by chloroform in the mouse. (V. W. Lawson, J. Pharmacol. Exp. Ther. 160, 22, 1968; B. Vargaftig, J. L. Coignet. Eur.J. Pharmacol. 6, 49, 1969).
The activity of the two forms of maleate described in the example 4 were studied, with that in the table subtitled as isomer A corresponding to the first fraction obtained in the aforementioned example, and isomer B corresponding to the second fraction.

hindquarters of rats = experiment: Vasodilatory activity, perfusion of the hindquarters of rats with a hyperpotasemic solution; design: species or system rat; conditions: summary statement
Text: In the Table 3 is shown the results of the vasodilatory activity of the ITA 362 in the perfusion test of the hindquarters of rats with a hyperpotasemic solution. (F. N. Fastier, F. M. Smirk. Jl, Pharmacolog. Exp. Therapy. 89. 256, 1947).

Hygroscopicity = type: physicochemical

CCCCNCC1COC(c2ccc(Cl)cc2)(c2cc3ccccc3o2)O1 (stereo not drawn) [ITA 362 maleate, 2-(2'-benzofuranil)-4-butylaminomethyl-2-p-chlorophenyl-1,3-dioxolane, maleate]
LD50 (rat; rat, oral): > 4000 mg/kg | LD50 (mouse): > 4000 mg/kg

O=[N+]([O-])OCC(CO[N+](=O)[O-])O[N+](=O)[O-] [Nitroglycerine, reference compound]
quot. Control/treatment ([1]; 0.4 mg/kg i.v.): 1.520 | % Prot. ([1]; 0.4 mg/kg i.v., t student n.s.): 28.9%

CCCCNCC1COC(c2ccc(Cl)cc2)(c2cc3ccccc3o2)O1 (single isomer, unassigned) [ITA 362 maleate (isomer A)]
ED50 ([2]; Mus musculus, po, read-out: ED50 and confidence limits p < 0.05, p.o., dose column in mg/kg): 35.4 mg/kg

CCCCNCC1COC(c2ccc(Cl)cc2)(c2cc3ccccc3o2)O1 (stereo not drawn) [ITA 362, 2-(2'-benzofuranil)-4-n-butylaminomethyl-2-p-chlorophenyl-1,3-dioxolan]
anti-arrhythmic activity (in words) ([2]; summary statement): intense | toxicity (in words) (rat; summary statement, species not specified): low toxicity | Antiangina activity relative to nitroglycerine ([1]; 1 mg/kg i.v. vs nitroglycerine 0.4 mg/kg): greater than that of nitroglycerine | anti-angina activity (in words) ([1]; summary statement): intense | vasodilatory activity (in words) (hindquarters of rats): intense

CCCCNCC1COC(c2ccc(Cl)cc2)(c2cc3ccccc3o2)O1 (stereo not drawn) [ITA 362 citrate]
% protection versus fibrillation ([2]; 3.125 mg/kg p.o.): 10% | hygroscopicity (Hygroscopicity): highly hydroscopic
